Nine compounds from patent EP3050886A1, “Fluorescent dyes and dye precursors” (Bürkert Werke GmbH, priority 2015, dated 2016) can be followed below.

For data set [1], the system named is E. coli (ATCC 8739). Put plainly: Labeling of viable or dead E. coli, fluorescence microscopy. Conditions: 15 µM, 30 min at 37 °C, Figure 4. The data set is classed as cell-based, Escherichia coli. On the procedure:
(§1) Escherichia coli (E. coli) (ATCC 8739) and Bacillus subtilis (B. subtilis) (ATCC 6633) strains were routinely grown in Luria Bertani (LB) broth or on LB agar plates for 18h at 37 °C. Waterborne environmental bacteria such as Enterobacter cloacae (E. cloacae), Chryseobacterium indologenes (C. indologenes), Pseudomonas aeruginosa (P. aeruginosa), and E. coli (EC18) were purchased from Eurofins™. Environmental bacteria were grown in LB broth or on casein-peptone soymeal-peptone agar plates for 18h at 37 °C.
(§2) For the staining tests, E. coli (ATCC 8739 or EC18), E. cloacae, C. indologenes, P. aeruginosa and B. subtilis were cultivated in Luria-Bertani (LB) broth until exponential phase at 37°C with shaking at 300 rpm revolutions per minutes (rpm). Bacteria were harvested and washed in sterile phosphate buffer saline solution (PBS) at pH […] by centrifugation at 10000 rpm for 3 min at room temperature (21 ± 2 °C). Then the bacteria were resuspended in PBS at a concentration of 1·10^9 bacteria/ml. Bacteria concentration was calculated according to the turbidity measure at 660 nm (A660nm=1 correspond to bacterial suspension at ∼ 5·10^8 bacteria/ ml).
(§3) Dead bacterial suspensions at 1·10^9 bacteria/ml (negative controls) of these five species of bacteria were prepared individually by addition of 20 µl of bleach containing 2.6 % active chlorine. Bacteria were treated with bleach solution for 15 min. Dead bacteria were washed twice in sterile PBS by centrifugation at 10000 rpm for 3 min at room temperature. The culturability of the negative controls was assessed by plating 100 µl of bacterial suspension onto LB agar or Caso agar and incubating the plates at 37 °C for 72 h.
(§4) Bacteria (100 µl suspension at 1·10^9 bacteria/ml) were stained with 10 µM or 15 µM of pro-fluorophore (5-CFDA, 5-PFDAE, 5-PFDAT, 5-PFDA, 5-COGDA, 5-POGDA or 5-POGAM) in 200 µl of PBS solution containing 0.6 % of glutaraldehyde. Bacteria were incubated at 37 °C for 10 - 60 min with pro-fluorophore in darkness. After bacterial staining, they were washed and resuspended in 100 µl of PBS as described above.
(§5) Staining of the bacterial suspension was observed under a fluorescent microscope. These bacteria were imaged with a Leica DM5500 microscope equipped with FITC filter. […] Images were collected with a 100x objective. Fluorescence intensity of stained bacterial suspension was also measured with FluoroLog®-3 (Horiba Jobin Yvon) spectrofluorometer equipped with sample stirring. Samples were placed in fluorescence grade quartz cuvette having a volume of 1 ml. The excitation wavelength used was 488 nm and emission wavelength used was 517 nm. The same experiment was repeated three times (n = 3).
The pro-fluorophores according to the present invention are preferably used to label E. coli cells. Viable or dead E. coli (ATCC 8739) are incubated with these fluorophores and commercial 5-CFDA as described above. […] Glutaraldehyde is added to the incubation solutions to improve the retention of the fluorophores in bacteria.
Bacteria were washed before being imaged with a Leica DM5500 microscope, 100x objective. Scale bars indicate 10 µm.

Data set [2] in a line: Short-term chemical stability (spontaneous fluorescence generation) in aqueous buffer. It is filed as physicochemical. Conditions: for chemical stability in aqueous solution (in words): PBS solution containing 0.6 % glutaraldehyde, 37°C. On the procedure: The short-term chemical stability of the pro-fluorophores of the present invention in an aqueous buffer was evaluated by fluorometric measurement analysis after several minutes of storage at 37°C.
Each pro-fluorophore (5-CFDA, 5-PFDAE, 5-PFDAT, 5-PFDA, 5-COGDA, 5-POGDA, 5-POGAM) was dissolved in dimethylsulfoxide (DMSO) in order to prepare a 10 mM stock solution. Short-term stability studies (0-60 min) were performed in the absence of light at 37°C. The pro-fluorophore stock solutions were diluted into a PBS solution containing 0.6 % of glutaraldehyde (pH ∼7). The pro-fuorophore final concentration was 15 µM. Samples were stored in a fluorescence grade quartz cuvette having a volume of 1 ml. Fluorescence emission spectra between 500 and 540 nm were recorded every 10 minutes. The excitation wavelength used was 488 nm. Fluorometric measurement were made with a FluoroLog®-3. (Horiba Jobin Yvon) spectrofluorometer equipped with sample stirring. The same experiment was repeated three times (n = 3).
Thus, the slope of the straight line corresponds to the speed of spontaneous fluorescence generation.

In data set [3] the test system is E. coli (ATCC 8739). The data set is described as follows: Labeling of viable E. coli, fluorescence intensity by spectrofluorometer. The data set is classed as cell-based, Escherichia coli. As to the method:
as §2, §3
[…] Bacteria were incubated at 37 °C for 10 - 60 min with pro-fluorophore in darkness. After bacterial staining, they were washed and resuspended in 100 µl of PBS as described above.
as §5
Viable or dead E. coli (ATCC 8739) were incubated with different pro-fluorophores (10 - 15 µM) for 30 min at 37 °C. After washes, fluorescence of the E. coli suspension was measured with a FluoroLog®-3 spectrofluorometer (excitation wavelength: 488 nm, emission wavelength: 517 nm). Relative rates of viable E. coli fluorescence intensity were calculated by normalizing the difference of viable E. coli fluorescence intensity and dead E. coli fluorescence intensity with 5-CFDA staining.
Viable E. coli (ATCC 8739) were incubated with different pro-fluorophores (15 µM) at 37 °C for 10 - 60 min. After washes, E. coli fluorescence suspension was measured with FluoroLog®-3 spectrofluorometer (excitation wavelength: 488 nm, emission wavelength: 517 nm).

Data set [4] in a line: Absorption spectra / extinction coefficients. It is filed as physicochemical. On the procedure:
Absorption spectra were recorded in a 1-cm path length cuvette (Hellma, 104.002B-QS) on a SPECORD®-205 spectrometer from Analytik Jena.
The Extinction coefficients of the flourophores fluorescein, 5-carboxyfluorescein (5-CF), 5-carboxy Oregon Green™ (5-COG), 5-amido N-propyl Oregon Green (5-POG; Example 2) and 5-amido N-propyl fluorescein (5-PFA; Example 3) were measured in 0.1 M NaOH solution at pH 12.7.
The extinction coefficients of the pro-fluorophores 5-thiourea N-propyl fluorescein diacetate (5-PFDAT; Example 5), 5-propyl carboxylate fluorescein diacetate (5-PFDAE; Example 8), 5-amido N-propyl fluorescein diacetate (5-PFDA; Example 7), 5-carboxy Oregon Green diacetate (5-COGDA; Example 9), 5-amido N-propyl Oregon Green diacetate (5-POGDA; Example 6) and 5-amido N-propyl Oregon Green acetoxymethylester (5-POGAM; Example 10) were measured in PBS buffer containing 0.6 % glutaraldehyde at pH 7.

Data set [5] can be described thus: Fluorometric measurements / quantum yield. Conditions: for Φ (quantum yield): 1 µM in 0.1 M NaOH at pH 12.7, excitation 488 nm, standard fluorescein, n = 3; for λem / λex: 0.1 M NaOH at pH 12.7. It is filed as physicochemical. As to the method: Fluorometric measurements were made using fluorescence grade quartz cuvette and FluoroLog®-3 spectrofluorometer from Horiba Jobin Yvon equipped with sample stirring. The quantum yields (QY) of 5-CF, 5-COG, 5-POG and 5-PFA were measured with samples at 1 µM (absorbance 488 nm ≤ 0.2) in 0.1 M NaOH at pH 12.7. Every sample and the standard (fluorescein) was prepared freshly before use. In this study, fluorescein in 0.1 M NaOH at pH 12.7 was the reference system with a known quantum yield (Φ = 0.925).
Quantum yield measurements were done using standard absorption and emission spectrometers. Emission spectra range was between the wavelengths 498 - 600 nm and excitation wavelength was 488 nm for the samples and fluorescein. The refractive indices of the samples and fluorescein solutions were the same since they were prepared in the same buffer. Under these conditions, quantum yields were calculated by using the equation: Φ^i = (F^ifs/F^sfi)*Φ^s [formula]
wherein Φ^i and Φ^s are the photoluminescence QY of the sample and standard (fluorescein), respectively; F^i and F^s are the integrated intensities (areas) of sample and fluorescein spectra, respectively; and fi and fs are the absorption factor of the sample and fluorescein, respectively, with fi or s = 1-10^-Ai or s, wherein A = absorbance.
The same experiment was repeated three times (n = 3).

For data set [6], the system named is Bacillus subtilis (B. subtilis) (ATCC 6633). The data set is described as follows: Bacteria staining test, fluorescence microscopy. It is filed as cell-based. Particulars: Fig. 3d, comparison between pro-fluorophores. As to the method: as §1, §2, §3, §4, §5
The mark [7] stands for this setting: pro-fluorophores, PBS buffer containing 0.6 % glutaraldehyde at pH 7.
The mark [8] stands for this setting: fluorophores, 0.1 M NaOH solution at pH 12.7.

Take `CCCNC(=S)Nc1ccc2c(c1)C(=O)OC21c2ccc(OC(C)=O)cc2Oc2cc(OC(C)=O)ccc21` [Example 5-PFDAT, 3-oxo-5-(3-propylthioureido)-3H-spiro[isobenzofuran-1,0'-xanthene]-3',6'-diyl diacetate]: in the data set on E. coli (ATCC 8739) [1], the “fluorescence signal of dead E. coli (microscopy)” value is “become fluorescent” and the “staining of viable E. coli (microscopy)” value was “become fluorescent”.

As for `CC(=O)Oc1cc2c(cc1F)C1(OC(=O)c3cc(C(=O)O)ccc31)c1cc(F)c(OC(C)=O)cc1O2` [Example 5-COGDA, 3',6'-diacetoxy-2',7'-difluoro-3-oxo-3H-spiro[isobenzofuran-1,9'-xanthene]-5-carboxylic acid], the “chemical stability in aqueous solution (in words)” value in data set [2] is reported as “less stable”. The “relative speed of spontaneous fluorescence generation (spontaneous hydrolysis)” value in data set [2] (relative to 5-CFDA, 15 µM, PBS containing 0.6 % glutaraldehyde, pH ~7, 37°C, 0-60 min) is “eight times higher”. Besides, the “staining of viable E. coli (microscopy)” value in the data set on E. coli (ATCC 8739) [1] is recorded as “specifically stained with high fluorescence intensity”. Further, the “viable E. coli fluorescence intensity relative to 5-CFDA staining” value with E. coli (ATCC 8739) [3] (10 - 15 µM, 30 min at 37 °C, excitation 488 nm, emission 517 nm, Figure 5) was “between two and three times higher”. For the same compound, in data set [4] (setting [7]), the “E (extinction coefficient)” value was 6979 ± 282 M⁻¹ cm⁻¹ and the λAbs max stood at 300 nm.

As to `O=C(O)c1ccc2c(c1)C(=O)OC21c2cc(F)c(O)cc2Oc2cc(O)c(F)cc21` [Example 5-COG, 5-carboxy Oregon Green™, reference compound], in data set [5], the “Φ (quantum yield)” value was 0,912 ± 0.011, the λem was 517 ± 0.4 nm and the λex came to 491 ± 1.2 nm. In addition, in data set [4] (setting [8]), the “E (extinction coefficient)” value amounted to 83136 ± 4452 M⁻¹ cm⁻¹ and the λAbs max is on record as 493 nm.

As for `CCCNC(=O)c1ccc2c(c1)C(=O)OC21c2ccc(O)cc2Oc2cc(O)ccc21` [Example 5-PFA, 3',6'-dihydroxy-3-oxo-N-propyl-3H-spiro[isobenzofuran-1,9'-xanthene]-5-carboxamide], in data set [5], the “Φ (quantum yield)” value is reported as 0,835 ± 0.002, the λem turned out to be 518 ± 0.4 nm and the λex came out at 493 ± 0.3 nm. Moreover, in data set [4] (setting [8]), the “E (extinction coefficient)” value was found to be 73490 ± 8454 M⁻¹ cm⁻¹ and the λAbs max is on record as 495 nm.

As for `CCCNC(=O)c1ccc2c(c1)C(=O)OC21c2ccc(OC(C)=O)cc2Oc2cc(OC(C)=O)ccc21` [Example 5-PFDA, 3-oxo-5-(propylcarbamoyl)-3H-spiro[isobenzofuran-1,9'-xanthene]-3',6'-diyl diacetate], the “staining of viable E. coli (microscopy)” value in the data set on E. coli (ATCC 8739) [1] is on record as “specifically stained with high fluorescence intensity”. Further, the “viable E. coli fluorescence intensity compared with 5-CFDA over incubation time” value in the data set with E. coli (ATCC 8739) [3] (15 µM, 37 °C, incubation for 10 to 60 min, Figure 6) is recorded as “higher fluorescence intensity than incubation with 5-CFDA”. In addition, in data set [4] (setting [7]), the “E (extinction coefficient)” value stood at 9284 ± 758 M⁻¹ cm⁻¹ and the λAbs max is given as 291 nm.

`CCCOC(=O)c1ccc2c(c1)C(=O)OC21c2ccc(OC(C)=O)cc2Oc2cc(OC(C)=O)ccc21` [Example 5-PFDAE, 3-oxo-5-(propoxycarbonyl)-3H-spiro[isobenzofuran-1,9'-xanthene]-3',6'-diyl diacetate]: in data set [2], the “chemical stability in aqueous solution (in words)” value is reported as “remarkable stability”. Further, in the data set on E. coli (ATCC 8739) [1], the “fluorescence signal of dead E. coli (microscopy)” value is “No fluorescence signal of dead bacteria was detected” and the “staining of viable E. coli (microscopy)” value was “weaker green fluorescence, as compared to 5-CFDA staining”. Further, in data set [4] (setting [7]), the “E (extinction coefficient)” value amounted to 7903 ± 761 M⁻¹ cm⁻¹ and the λAbs max worked out at 295 nm.

Consider `CCCNC(=O)c1ccc2c(c1)C(=O)OC21c2cc(F)c(O)cc2Oc2cc(O)c(F)cc21` [Example 5-POG, 2',7'-difluoro-3',6'-dihydroxy-3-oxo-N-propyl-3H-spiro[isobenzofuran-1,9'-xanthene]-5-carboxamide], for which, in data set [5], the “Φ (quantum yield)” value is 0,902 ± 0.013, the λem was 518 ± 1.1 nm and the λex worked out at 493 ± 0.6 nm. In data set [4] (setting [8]), the “E (extinction coefficient)” value stood at 74835 ± 4762 M⁻¹ cm⁻¹ and the λAbs max stood at 495 nm.

As for `O=C(O)c1ccc2c(c1)C(=O)OC21c2ccc(O)cc2Oc2cc(O)ccc21` [Example 5-CF, 5-carboxyfluorescein, reference compound], in data set [5], the “Φ (quantum yield)” value was 0.963 ± 0.004, the λem is recorded as 517 ± 0.6 nm and the λex was 491 ± 0.7 nm. For the same compound, in data set [4] (setting [8]), the “E (extinction coefficient)” value turned out to be 76474 ± 4009 M⁻¹ cm⁻¹ and the λAbs max is recorded as 493 nm.

Turning to `CC(=O)Oc1ccc2c(c1)Oc1cc(OC(C)=O)ccc1C21OC(=O)c2cc(C(=O)O)ccc21` [Example 5-CFDA, 5-carboxyfluorescein diacetate, reference compound], in data set [6], the “fluorescence intensity of the stained B. subtilis” value was “higher than the staining with 5-POGDA and 5-POGAM”.
